{
  "source": "patent US20220184220A1",
  "about": "“XYLOGLUCAN-CONTAINING PRODRUGS AND METHODS OF MANUFACTURE AND USE THEREOF” (priority 2019, published 2022)",
  "key": {"[1]": {"test_system": "acute self-limiting colitis in mice", "assay": "Histological scoring of inflammation, C. rodentium colitis in germ-free mice colonized with B. ovatus (Example 3)", "assay_type": "in vivo", "settings": "n=2; for Crypt Height / Epithelia Hyperplasia / Epithelial Injury / Fibrosis / Globlet cell / Inflamm / Mitotic Act.: gavage 3 days, prednisolone forms 1 mg/kg/day, dexamethasone forms 0.6 mg/kg/day; for Total Score: sum of each scoring category"}, "[2]": {"test_system": "acute self-limiting colitis in mice", "assay": "Gross visual observations of the murine abdomen (Example 3)", "assay_type": "in vivo", "settings": "necropsy after 3 days of steroid gavage", "description": "Under isoflurane anesthesia, mice were terminally bled by cardiac puncture and then humanely euthanized by cervical dislocation. All collected blood was separated into serum that was dedicated for steroid detection and optimization of steroid detection procedures. Following euthanasia, a midline laparotomy was made and gross observations of the abdominal regions were photo-documented. Approximately 1 cm sections of the cecum, and the most proximal and distal portions of the colon were divided for histological examination. Cecal and colonic tissues were flash frozen in liquid nitrogen for future immunological protein quantification. Digesta extracted from the colon was stored at −80° C. for future steroid detection, and fresh feces from the cages were used to enumerate Bacteroides ovatus and Citrobacter rodentium by microbiological techniques on the same day as the necropsy."}, "[3]": {"assay": "Dissolution of steroid in sterile water for gavage", "assay_type": "physicochemical", "settings": "dose in 100 μL gavage volume", "experimental": "The average weight of the mice (27.9 g) was calculated on the second day of the Citrobacter rodentium infection, and this average weight was used to calculate the steroid concentrations for all treatments. The steroids were dissolved as best as possible in sterile water, and stored at 4° C. until needed. Steroids were administered by gavage in […] for 3 consecutive days at the same time each morning (24 hrs between treatments) for the final 3 days of the C. rodentium infection. Mice in the control groups (without drug intervention) received water by gavage in 100 μL volumes. Gavage needles for drug administration were coated in sucrose solution (1 g/mL, syringe-filter sterilized) as a refinement procedure."}, "[4]": {"test_system": "acute self-limiting colitis in mice", "assay": "Histological scoring of inflammation, C. rodentium colitis in mice with normal enteric microbiota (Example 7)", "assay_type": "in vivo", "settings": "CR+/BO+ mice; prednisolone forms 1 mg/kg, dexamethasone forms 1.5 mg/kg (equivalent); one day following steroid treatment", "experimental": "Approval to conduct this project was obtained from the AAFC LeRDC Animal Care Committee (Animal Use Protocol 1911). […] The methods employed were essentially the same as those described in Example 3, except that the Citrobacter rodentium (CR) was administered to incite acute self-limiting colitis in mice prior to colonization with Bacteroides ovatus (BO). […] FIG. 20 provides a schematic illustrating the study design and timelines.\nAs in the study described in Example 3, there were gross histopathological differences in the distal colon tissue obtained from mice in the different treatment groups. Histological scoring of inflammation was performed by a board-certified pathologist blinded to treatment. […] Following CR infection, with no treatment, neutrophil infiltration was evident and the histological score was 10. […] Evidence of enhanced amelioration of protein markers of inflammation were also observed. […] IL-12p70 is a pro-inflammatory cytokine involved in cell-mediated immunity. For example, it is known as a T cell-stimulating factor, which can stimulate the growth and function of T cells. Moreover, it stimulates the production of interferon-gamma (IFN-γ) and tumor necrosis factor-alpha (TNF-α) from T cells and natural killer (NK) cells, and reduces IL-4 mediated suppression of IFN-γ."}},
  "note": "“Also recorded” adds a separate entry of the source.",
  "data": [
    {"compound": "C[C@]12C=CC(=O)C=C1CC[C@@H]1[C@@H]2[C@@H](O)C[C@@]2(C)[C@H]1CC[C@]2(O)C(=O)CO", "note": "[prednisolone, reference compound]", "values": [
      {"measurement": "Crypt Height", "setting": "[1]; cecal tissue", "value": 1.5},
      {"measurement": "Epithelia Hyperplasia", "setting": "[1]; cecal tissue", "value": 1.5},
      {"measurement": "Epithelial Injury", "setting": "[1]; cecal tissue", "value": 1},
      {"measurement": "Fibrosis", "setting": "[1]; cecal tissue", "value": 1},
      {"measurement": "Globlet cell", "setting": "[1]; cecal tissue", "value": 0.5},
      {"measurement": "Inflamm", "setting": "[1]; cecal tissue", "value": 1.5},
      {"measurement": "Mitotic Act.", "setting": "[1]; cecal tissue", "value": 1},
      {"measurement": "Total Score", "setting": "[1]; cecal tissue", "value": 8},
      {"measurement": "Crypt Height", "setting": "[1]; distal colon", "value": 1.5},
      {"measurement": "Epithelia Hyperplasia", "setting": "[1]; distal colon", "value": 1.5},
      {"measurement": "Epithelial Injury", "setting": "[1]; distal colon", "value": 2},
      {"measurement": "Fibrosis", "setting": "[1]; distal colon", "value": 1.5},
      {"measurement": "Globlet cell", "setting": "[1]; distal colon", "value": 0.5},
      {"measurement": "Inflamm", "setting": "[1]; distal colon", "value": 1.5},
      {"measurement": "Mitotic Act.", "setting": "[1]; distal colon", "value": 1.5},
      {"measurement": "Total Score", "setting": "[1]; distal colon", "value": 10},
      {"measurement": "Crypt Height", "setting": "[1]; proximal colon", "value": 2},
      {"measurement": "Epithelia Hyperplasia", "setting": "[1]; proximal colon", "value": 1.5},
      {"measurement": "Epithelial Injury", "setting": "[1]; proximal colon", "value": 2},
      {"measurement": "Fibrosis", "setting": "[1]; proximal colon", "value": 0},
      {"measurement": "Globlet cell", "setting": "[1]; proximal colon", "value": 0.5},
      {"measurement": "Inflamm", "setting": "[1]; proximal colon", "value": 1.5},
      {"measurement": "Mitotic Act.", "setting": "[1]; proximal colon", "value": 1.5},
      {"measurement": "Total Score", "setting": "[1]; proximal colon", "value": 9},
      {"measurement": "blood present in ceca (gross observation)", "setting": "[2]", "value": "more blood present in ceca than dexamethasone treatment; also recorded: more blood in cecal area"},
      {"measurement": "dissolution in water", "setting": "[3]", "value": "did not fully dissolve in water"},
      {"measurement": "histological score, distal colon", "setting": "[4]", "value": 18}
    ]}
  ]
}
